Data: US20170218042A1, “METHODS OF ISOLATING T CELL RECEPTORS HAVING ANTIGENIC SPECIFICITY FOR A CANCER-SPECIFIC MUTATION” (The United State of America, as represented by the …, priority 2014, published 2017)

Tested on: 3737-TIL
Test: Co-culture of 3737-TIL with TMG-RNA-transfected autologous DCs; flow cytometry for activation markers 4-1BB and OX40
Type: cell-based, human
Description: APCs (DCs or B cells) were harvested, washed 1× with PBS, and then resuspended in Opti-MEM (Life Technologies) at 10-30×10^6 cells/ml. IVT RNA (4 μg or 8 μg) was aliquoted to the bottom of a 2 mm gap electroporation cuvette, and 50 μl or 100 μl of APCs were added directly to the cuvette. The final RNA concentration used in electroporations was thus 80 μg/ml. Electroporations were carried out using a BTX-830 square wave electroporator. DCs were electroporated with 150 V, 10 ms, and 1 pulse, and B cells were electroporated with 150 V, 20 ms, and 1 pulse. Transfection efficiencies using these settings were routinely between 70-90% as assessed with GFP RNA (data not shown). All steps were carried out at room temperature. Following electroporation, cells were immediately transferred to polypropylene tubes containing DC- or B-cell media supplemented with the appropriate cytokines. Transfected cells were incubated overnight (12-14 h) at 37° C., 5% CO2. Cells were washed 1× with PBS prior to use in co-culture assays.
When DCs were used as APCs, approximately 3.5×10^4 to 7×10^4 DCs were used per well of a 96-well flat or round-bottom plate. When B cells were used as APCs, approximately 2×10^5 cells were used per well of a 96-well round-bottom plate. In ELISPOT assays, 1×10^3 to 1×10^4 effector T cells were used per well, and in flow cytometry assays, 1×10^5 effector T cells were used per well. T cells were typically thawed and rested in IL-2 containing 50/50 media (3000 IU/ml IL-2) for two days and then washed with PBS (3×) prior to co-culture assays. All co-cultures were performed in the absence of exogenously added cytokines. For all assays, plate-bound OKT3 (0.1 μg/ml or 1 μg/ml) was used as a positive control.
Expression of the T-cell activation markers OX40 and 4-1BB was assessed by flow cytometry at approximately t=22-26 h post-stimulation. Briefly, cells were pelleted, washed with FACS buffer (1×PBS supplemented with 1% FBS and 2 mM EDTA), and then stained with the appropriate antibodies for approximately 30 min, at 4° C. in the dark. Cells were washed at least once with FACS buffer prior to acquisition on a BD FACSCanto II flow cytometer. All data were gated on live (PI negative), single cells.
The TMG constructs were then used as templates for the generation of in vitro transcribed (IVT) RNA. Each of these IVT TMG RNAs was then individually transfected into autologous APCs (DCs) followed by a co-culture with TIL to determine whether any of the processed and presented mutated antigens were recognized by TIL. It was observed that 3737-TIL were reactive to a mutated antigen present in TMG-1, but not TMG-2 or TMG-3 (FIG. 1A). […] Tables 4A and 4B show the percentage of 3737-TIL detected by flow cytometry as having the indicated phenotype following coculture with DCs cultured with the non-specific stimulator OKT3 or DCs transfected with green fluorescent protein (GFP) RNA, or the indicated tandem mini-gene (TMG) construct encoding the various mutations identified by whole-exomic sequencing. Mock-transfected cells were treated with transfection reagent only without addition of nucleic acid. Data were gated on live CD3+ cells.
3737-TIL were co-cultured with DCs transfected with TMG-1 or TMG-1 encoding the wild-type (wt) ERBB2IP reversion, and flow cytometry was used to assess OX40 and Vβ22 expression on CD4+ T cells at 24 hours post-stimulation. Plate-bound OKT3 stimulation was used as a positive control.

[1] = 3737-TIL CD4+ T cells, 24 hours post-stimulation
[2] = percentage of 3737-TIL after co-culture with transfected DCs or OKT3, gated on live CD3+ cells

OKT3: anti-CD3 antibody, non-specific stimulator, plate-bound positive control
Vβ22+/OX40+ [1]: 44% | Vβ22+/OX40− [1]: 6% | Vβ22−/OX40+ [1]: 31% | Vβ22−/OX40− [1]: 19% | 4-1BB+/CD4+ [2]: 32% | 4-1BB+/CD4− [2]: 41% | 4-1BB−/CD4+ [2]: 23% | 4-1BB−/CD4− [2]: 4% | OX40+/CD4+ [2]: 45% | OX40+/CD4− [2]: 6% | OX40−/CD4+ [2]: 11% | OX40−/CD4− [2]: 38%
